The values below come from patent publication US4596820A, “1,7-diphenyl-3-methylaza-7-cyano-8-methylnonane for use in the treatment of diseases” (priority 1983, dated 1986).

Series [1] concerns hypoxic reduction in the level of creatine phosphate, adenosine triphosphate and glycogen in the heart muscle. Kind of series: animal or person. The class given is in vivo, rat (male Wistar). As to conditions: for ED 50% (pretreatment dose which increases the ATP level by 50% compared with the hypoxic control group): 360 min; for Relative activity: relative to (±) A = 1. On the procedure:
Male Wistar rats weighing 250-300 g were anesthetized intraperitoneally with thiobutabarbital (100 mg/kg of body weight) and then subjected to standardized ventilation with an oxygen-deficient mixture (2% of O2 and 98% of N2) for 7 minutes. Using the freeze-stop technique, the apex of the heart was removed, mechanically comminuted and then digested with the addition of 0.6N perchloric acid. After centrifuging, creatine phosphate (according to Bergmeyer, H. U., Methoden der enzymatischen Analyse, Verlag Chemie, Weinheim, 2, (1974), 1825), adenosine triphosphate (according to Biochem. Biophys. Acta (Amst.) 1 (1947), 292) and glycogen (according to Biochem. J. 56 (1954), 1825) were determined in the supernatant liquid.
The test substances were administered to the conscious animals at various times before they were anesthetized and before the subsequent ventilation with an oxygen-deficient mixture. The percentage difference in the myocardial concentrations of adenosine triphosphate (ATP), creatine phosphate (CP) and glycogen in animals pretreated with the test substance compared with untreated hypoxic control animals was determined.
The ED 50% is the pretreatment dose of test substance which
increases the ATP level by 50% compared with the hypoxic

Series [2] relates to AV conduction. Kind of series: Effect on AV conduction in the dog. The class given is in vivo. As to the method: The effect on the AV conduction was tested on a species suitable for this purpose, ie. the dog.
Series [3] concerns PQ interval and myocardial contractility. The experiment in a line: PQ interval and myocardial contractility in anesthetized pigs. It counts as in vivo, pig. As to conditions: 0.2 mg/kg intravenously.
In series [4] the test system is cerebral hypoxia. The experiment in a line: Tolerance of the mouse to hypoxia (survival of oxygen-deficient ventilation). It counts as in vivo, mouse (female NMRI Ivanovas). To be noted: for Effect on number of animals surviving hypoxia after 3 minutes: 96.5% N2 and 3.5% O2, dose-dependent for A and its antipodes; for ED 50% (dose at which 50% of the animals survived oxygen-deficient ventilation for 3 minutes): 60 min. As to the method: To test for tolerance to hypoxia, female mice (NMRI Ivanovas, weight 24-26 g) were introduced individually into glass tubes through which a gas mixture consisting of 96.5% of N2 and 3.5% of O2 flowed via a rotameter, at a rate of 4 liters/min. The time from the beginning of passage of the gas mixture until death occurred was measured.
Tolerance of the mouse to hypoxia, test carried out 1 hour
after oral administration of the test substances.
ED 50% means that, at the stated dose, 50% of the animals
survived oxygen-deficient ventilation for 3 minutes.

For series [5], the system named is heart and the circulation. To be noted: similar doses; cited from earlier work.
Series [6] deals with blood pressure and heart rate. Kind of series: Blood pressure and heart rate of conscious spontaneously hypertensive rats. The class given is in vivo. To be noted: 20 mg/kg oral.
For series [7] the following is noted: in vivo.
Series [8] can be described thus: Overall findings (oral availability, duration of action, toleration). As to conditions: in vivo.
The mark [9] stands for this setting: 20 mg/kg oral, 6 hours after administration (Table 3, comparison with verapamil).
The mark [10] stands for this setting: 40 mg/kg oral, 6 hours after administration.
Where [11] appears, read: 80 mg/kg oral, 6 hours after administration.
The mark [12] stands for this setting: rat, 6 hours after oral administration.
Setting [13] is: mouse, 1 hour after oral administration.
Where [14] appears, read: 5 mg/kg oral, 6 hours after administration, vs untreated hypoxic controls.
Where [15] appears, read: 10 mg/kg oral, 6 hours after administration, vs untreated hypoxic controls.
[16] abbreviates: 20 mg/kg oral, 2 hours after administration.
[17] abbreviates: 20 mg/kg oral, 6 hours after administration (Table 2).
Setting [18] is: 20 mg/kg oral, 6 hours after administration, vs untreated hypoxic controls (Table 1).
Where [19] appears, read: 20 mg/kg oral, 12 hours after administration.
Setting [20] is: 20 mg/kg oral, 18 hours after administration.
The mark [21] stands for this setting: 20 mg/kg oral, 24 hours after administration.

For the molecule `COc1ccc(CCN(C)CCCC(C#N)(c2ccc(OC)c(OC)c2)C(C)C)cc1OC` (centres unmarked) [verapamil, reference compound], in series [1] (setting [9]), the “Percentage difference in the amount of ATP” value is 0%, the “Percentage difference in the amount of CP” value is -9% and the “Percentage difference in the amount of Glycogen” value stood at 9%. Moreover, in series [1] (setting [10]), the “Percentage difference in the amount of ATP” value is 9%, the “Percentage difference in the amount of CP” value was 9% and the “Percentage difference in the amount of Glycogen” value is -5%. For the same molecule, in series [1] (setting [11]), the “Percentage difference in the amount of ATP” value turned out to be 20%, the “Percentage difference in the amount of CP” value is reported as 21% and the “Percentage difference in the amount of Glycogen” value is 2%. Further, in series [1] (same dose as A or up to 4 times higher, 6 hours after oral administration), the “Protective action against the hypoxia-induced reduction in myocardial CP, ATP and glycogen” value is “no significant protective action”. In series [2] (0.4 mg/kg intravenously), the AV block result is recorded as “causes second degree AV blocks in all experimental animals” and the PQ interval entry is “greatly prolongs the PQ interval”. In series [3], the “Myocardial contractility (maximum systolic rate of increase in pressure in the left ventricle)” value is on record as “reduction in the myocardial contractility” and the PQ interval result is reported as “pronounced increase in the PQ interval”. In addition, in series [4], the “Effect on number of animals surviving hypoxia after 3 minutes” value (“Effect on number” for short) is on record as “ineffective”. Also, in series [4] (after 3 minutes of hypoxia), the “Survival of pretreated animals” value is “dead after 3 minutes”. The “Known effects on the heart and the circulation” value in series [5] is “reduction in blood pressure and inhibition of AV conduction”.

Regarding `CC(C)C(C#N)(CCCN(C)CCc1ccccc1)c1ccccc1` (single isomer, unassigned; (-)) [(-) A, (-)-1,7-Diphenyl-3-methylaza-7-cyano-8-methylnonane], in series [1] (setting [12]), the “Effective dose compared with that of the antipode” value is listed as “substantially lower than that of the dextrorotatory antipode”, the “Efficacy relative to the racemate” value is on record as “about twice as effective as the racemate”, the “ED 50% (pretreatment dose which increases the ATP level by 50% compared with the hypoxic control group)” value came out at 6.6 mg/kg and the Relative activity was determined as 2.06. Moreover, the “Effect on number” value in series [4] is on record as “increase the number of experimental animals which survive after 3 minutes”. Also, the “ED 50% (dose at which 50% of the animals survived oxygen-deficient ventilation for 3 minutes)” value in series [4] (setting [13]) stood at 48 mg/kg.

As to `CC(C)C(C#N)(CCCN(C)CCc1ccccc1)c1ccccc1` (single isomer, unassigned; (+)) [(+) A, (+)-1,7-Diphenyl-3-methylaza-7-cyano-8-methylnonane], in series [1] (setting [12]), the “Efficacy relative to the racemate” value was “about one fourth of the efficacy of the racemate”, the “ED 50% (pretreatment dose which increases the ATP level by 50% compared with the hypoxic control group)” value stood at 50.3 mg/kg and the Relative activity turned out to be 0.27. For the same molecule, the “ED 50% (dose at which 50% of the animals survived oxygen-deficient ventilation for 3 minutes)” value in series [4] (setting [13]) is 100 mg/kg.

As to `CC(C)C(C#N)(CCCN(C)CCc1ccccc1)c1ccccc1` (racemic) [A, 1,7-diphenyl-3-methylaza-7-cyano-8-methylnonane], in series [1] (5 mg/kg oral (lowest dose tested)), the “Inhibition of the hypoxic reduction in CP, ATP and glycogen in the heart muscle” value was “substantially inhibits the hypoxic reduction in the level of creatine phosphate, adenosine triphosphate and glycogen in the heart muscle”. In addition, the “Percentage difference in the amount of ATP” value was 24% in series [1] (setting [14]); 37% in series [1] (setting [15]); 31% in series [1] (setting [16]); 63% in series [1] (setting [17]); 63% in series [1] (setting [9]); 63% in series [1] (setting [18]). Further, the figures for the “Percentage difference in the amount of ATP” value in series [1] (setting [19]), in series [1] (setting [20]) and in series [1] (setting [21]) were 42%, 40% and 11%, respectively. Moreover, the “Percentage difference in the amount of CP” value in series [1] (setting [14]) is listed as 29%; in series [1] (setting [15]), 47%; in series [1] (setting [16]), 41%; in series [1] (setting [17]), 80%; in series [1] (setting [9]) it was 80%; in series [1] (setting [18]) it was 80%. In addition, the “Percentage difference in the amount of CP” value came to 42% in series [1] (setting [19]), 32% in series [1] (setting [20]) and 22% in series [1] (setting [21]). In addition, the “Percentage difference in the amount of Glycogen” value was 10% in series [1] (setting [14]); 27% in series [1] (setting [15]); -1% in series [1] (setting [16]); 50% in series [1] (setting [17]); 50% in series [1] (setting [9]); 50% in series [1] (setting [18]). For the same molecule, the figures for the “Percentage difference in the amount of Glycogen” value in series [1] (setting [19]), in series [1] (setting [20]) and in series [1] (setting [21]) were 19%, 16% and 26%, respectively. In addition, the “Cardioprotective effect at the dose” value in series [1] (20 mg/kg oral, rat) is on record as “maximum cardioprotective effect”. For the same molecule, in series [1] (20 mg/kg oral, CP and ATP), the “Onset of protective effect” value is “clearly detectable for the parameters CP and ATP as soon as 2 hours after administration”. The “Duration of protective effect” value in series [1] (20 mg/kg, CP and ATP) is “up to 24 hours”. Further, in series [1] (6 hours after oral administration), the “Cardioprotective action compared with verapamil” value is “substantially superior to that of verapamil”. Further, the ED50 in series [1] (Rattus norvegicus, po, 6 h, rat, 6 hours after oral administration, read-out: ED 50% (pretreatment dose which increases the ATP level by 50% compared with the hypoxic control group)) came out at 13.6 mg/kg; in series [4] (Mus musculus, po, 1 h, mouse, 1 hour after oral administration, read-out: ED 50% (dose at which 50% of the animals survived oxygen-deficient ventilation for 3 minutes)), 88 mg/kg. In addition, the “Dose dependence of protective effect” value in series [1] (oral, rat) is recorded as “An increase in dose results in a greater protective effect”. The same molecule yielded a Relative activity in series [1] (setting [12]) of 1. Besides, the “Toleration of the dose” value in series [1] (rat, in vivo) is recorded as “well tolerated”. Moreover, the “Blood pressure, Change in %” value in series [6] (6 hours after administration) is -5%. Moreover, the “Heart rate, Change in %” value in series [6] (6 hours after administration) was -5%. In addition, in series [6] (initial value 229), the “Blood pressure, 6 hours after administration of the substance” value is 217. The “Heart rate, 6 hours after administration of the substance” value in series [6] (initial value 398) is 378. Moreover, the “Risk of provoking conduction disturbances compared with verapamil” value in series [2] (in vivo) is “substantially lower in the case of A than for verapamil”. Also, the “Therapeutic index compared with verapamil” value in series [2] (in vivo) is given as “substantially greater therapeutic index than verapamil”. Besides, in series [2] (in vivo, iv, 0.4 mg/kg), the “Effect on AV conduction” value is on record as “no adverse effect at all on the AV conduction”. In addition, the “Effect on number” value in series [4] is listed as “increase the number of experimental animals which survive after 3 minutes”. Further, the “Protective action against cerebral hypoxia compared with verapamil” value in series [4] (mouse) is recorded as “superior protective action, compared with verapamil”. The “Reduction in the blood pressure” value in series [7] was “does not result in a reduction in the blood pressure”. For the same molecule, the Toleration result in series [7] is given as “particularly well tolerated”. In addition, in series [8], the Duration of action result is “long duration of action”. Besides, the Oral availability entry in series [8] (po) is “great oral availability”.
